# According to patent publication US20240059688A1, “CONOLIDINE ANALOGUES AS SELECTIVE ACKR3 MODULATORS FOR THE TREATMENT OF CANCER” (Luxembourg Institute of Health (LIH), priority 2020, published 2024):
# Marks after values point to notes of the source that are not given here.
# Legend:
# Assay type in all cases: cell-based
# ACKR3 = ACKR3 (Homo sapiens, UniProt P25106); experiment: Ligand-induced ACKR3 delivery to early endosomes (NanoBRET, U87 cells); set-up: expressed in transfected cells; host or cells: U87-ACKR3 (ACKR3-negative U87 as control); conditions: ACKR3-Nanoluciferase / FYVE-mNeonGreen, FIG. 6 section B
# Protocol: Ligand-induced receptor-arrestin delivery to early endosomes was monitored by NanoBRET. In brief, 1.2×10^6 U87 cells were seeded in 10-cm dishes and co-transfected with plasmids encoding ACKR3, C-terminally tagged with Nanoluciferase and FYVE domain of endofin interacting with phosphatidylinositol 3-phosphate (PI3P) in early endosomes46,47, N-terminally tagged with mNeonGreen. 48h post-transfection, cells were distributed into black 96-well plates (1×10^5 cells per well) and treated with full-length or processed chemokines. After 2-hour incubation at 37° C., coelenterazine H (10 μM) was added and donor emission (460 nm) and acceptor emission (535 nm) were immediately measured on a GloMax plate reader (Promega).
# ACKR4 = molecular target: T1, ACKR4 (Homo sapiens, UniProt Q9NPB9); experiment: NanoBiT β-arrestin-1 recruitment, receptor selectivity panel, ACKR4; conditions: higher concentrations (3 μM, 10 μM); FIG. 3 sections B and C
# T1 construct: expressed in transfected cells; host or cells: U87
# T1 sequence (Q9NPB9 1-350): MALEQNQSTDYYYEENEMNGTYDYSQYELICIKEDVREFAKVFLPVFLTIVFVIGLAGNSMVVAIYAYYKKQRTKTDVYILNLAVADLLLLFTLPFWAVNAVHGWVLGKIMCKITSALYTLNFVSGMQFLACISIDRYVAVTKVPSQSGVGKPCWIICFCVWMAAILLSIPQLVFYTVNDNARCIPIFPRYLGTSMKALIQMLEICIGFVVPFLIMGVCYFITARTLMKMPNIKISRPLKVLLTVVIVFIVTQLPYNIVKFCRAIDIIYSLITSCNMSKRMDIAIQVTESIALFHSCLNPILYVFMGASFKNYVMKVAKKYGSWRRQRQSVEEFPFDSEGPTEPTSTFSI
# Protocol: To further assess the selectivity profile of the compounds of the invention towards ACKR3, the ability to activate the 21 classical and 4 atypical chemokines receptors and related receptors was tested using the NanoBiT assay based β-arrestin-1 recruitment described previously. The 4 classical opioid receptors described above were also included in the experimental setup. The compounds WW-1 (conolidine) and WW-12 were tested at three different concentrations, 1 μM, 3 μM and 10 μM.
# This possible off-target effect was further characterized by comparing the ability of the two molecules to activate receptors ACKR4, CX3CR1 and CCR3 with reference ligands for the receptors, namely CCL19, CX3CL1 and CCL13.
# Ligand-induced β-arrestin recruitment to chemokine and opioid receptors was monitored by NanoLuc complementation assay (NanoBiT, Promega). […] Ligand-induced, β-arrestin to GPCRs was evaluated with a Mithras LB940 luminometer (Berthold Technologies, running on MicroWin 2010 5.19 software (Mikrotek Laborsysteme)) for 20 minutes.
# For single dose screening experiments on all chemokine receptors(FIG. 3), the results are represented as percentage of signal monitored with 100 nM of one known agonist chemokine listed in the IUPHAR repository of chemokine receptor ligands which was added as positive control.
# KOR = KOR (Homo sapiens, UniProt P41145); experiment: KOR calcium mobilization agonist/antagonist screen (CHO-RD-HGA16 cells); set-up: host or cells: CHO-RD-HGA16; conditions: single concentration; for Emax: CHO-RD-HGA16, agonist screen, control agonist U69,593; for KOR Calcium % U69, 593 Inhibition: antagonist screen, vs EC60 of U69,593
# Protocol: Compounds were evaluated for kappa (KOR), mu (MOR), and delta (DOR) opioid receptor agonist and antagonist activity in three individual cell lines overexpressing Gαq16 (CHO-RD-HGA16, Molecular Devices) and the human kappa, mu, and delta opioid receptors, respectively. The day before the assay, cells were plated into 96-well black-walled assay plates at 30,000 cells/well in Ham's F12 supplemented with 10% fetal bovine serum, and 100 units of penicillin and streptomycin. The cells were incubated overnight at 37° C., 5% CO2. Prior to the assay, Calcium 5 dye (Molecular Devices) was reconstituted according to the manufacturer's instructions. The reconstituted dye was diluted 1:40 in pre-warmed (37° C.) assay buffer (1×HBSS, 20 mM HEPES, 2.5 mM probenecid, pH 7.4 at 37° C.). Growth medium was removed and the cells were gently washed with 100 μL of pre-warmed (37° C.) assay buffer. The cells were incubated for 45 minutes at 37° C., 5% CO2 in 200 μL of the diluted Calcium 5 dye. For the agonist screen, a single concentration of each test compound and receptor-specific controls (U69,593, DAMGO, and DPDPE for KOR, MOR, and DOR, respectively) were prepared at 10× the desired final concentration in 1% DMSO/assay buffer, aliquoted into a 96-well polystyrene plate, and warmed to 37° C. After the dye-loading incubation period, pretreatment solution was added to each well (25 μL of 9% DMSO/assay buffer) and, after 15 min, the plate was read with a FlexStation II (Molecular Devices). Calcium-mediated changes in fluorescence were monitored every 1.52 seconds over a 60 second time period, with the FlexStation II adding 50 μL of test compounds at the 19 second time point (excitation at 485 nm, detection at 525 nm). Peak kinetic reduction (SoftMax, Molecular Devices) relative fluorescence units (RFU) were used to calculate % control agonist Emax with the equation % Emax=(test compound RFU/control agonist RFU)×100. For the antagonist screens, the same procedure was followed except that the pretreatment solution consisted of the test compounds (prepared at […] the desired final concentration in 9% DMSO/assay buffer) and the FlexStation added the EC60 concentration (prepared at 10× the desired final concentration in 1% DMSO/assay buffer) of each respective control agonist. Peak RFU were used to calculate % control EC60 inhibition with the equation % inhibition=((EC60 RFU−test compound RFU)/EC60 RFU)×100. When IC50 determinations were made, the same antagonist screen procedure was followed except that cells were pretreated with 8-pt concentration-response curves of the test compounds. Peak RFU were plotted against the log of compound concentration using non-linear regression analysis to generate IC50 values (GraphPad Prism). Each test sample was analyzed in duplicate in two independent experiments.
# Chain of KOR (P41145 whole entry): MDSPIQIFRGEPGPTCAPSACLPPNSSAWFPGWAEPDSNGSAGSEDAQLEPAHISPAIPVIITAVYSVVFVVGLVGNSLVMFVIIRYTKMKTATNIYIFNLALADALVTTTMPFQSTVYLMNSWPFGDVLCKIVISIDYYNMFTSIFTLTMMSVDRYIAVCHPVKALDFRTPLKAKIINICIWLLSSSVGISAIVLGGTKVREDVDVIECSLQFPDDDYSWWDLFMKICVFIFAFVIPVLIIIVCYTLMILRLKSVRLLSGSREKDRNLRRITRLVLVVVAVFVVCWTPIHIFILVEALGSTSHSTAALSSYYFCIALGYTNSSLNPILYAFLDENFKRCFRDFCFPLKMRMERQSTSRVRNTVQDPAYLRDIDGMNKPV
# Chain of ACKR3 (P25106 whole entry, the tested form may be a part): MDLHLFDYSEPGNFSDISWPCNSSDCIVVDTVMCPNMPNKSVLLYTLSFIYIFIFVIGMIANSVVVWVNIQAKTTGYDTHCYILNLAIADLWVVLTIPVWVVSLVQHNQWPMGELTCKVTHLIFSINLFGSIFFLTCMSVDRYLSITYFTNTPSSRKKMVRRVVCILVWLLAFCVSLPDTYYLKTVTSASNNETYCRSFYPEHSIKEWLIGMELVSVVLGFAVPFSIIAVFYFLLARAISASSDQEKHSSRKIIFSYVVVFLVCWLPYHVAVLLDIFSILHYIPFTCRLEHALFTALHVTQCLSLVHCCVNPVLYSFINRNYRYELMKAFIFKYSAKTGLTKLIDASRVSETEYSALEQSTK
ACKR3 delivery to the endosomes (ACKR3),activation of ACKR4 (β-arrestin-1 recruitment) in receptor panel (ACKR4),Emax (KOR),"KOR Calcium % U69, 593 Inhibition (KOR)",SMILES
delivery to the endosomes,weak activation,9%,11%,"C/C=C1/CN2CC[C@H]1C(=O)c1[nH]c3ccccc3c1C2 [WW-1, (4E,5R)-4-ethylidene-1,4,5,7-tetrahydro-2,5-ethanoazocino[4,3-b]indol-6(3H)-one]"
delivery to the endosomes,weak activation,7%,69** %,"C/C=C1/CN(CCCCC)CC[C@H]1C(=O)c1cc2ccccc2[nH]1 [WW-12, [(3E,4R)-3-ethylidene-1-pentylpiperidin-4-yl](1H-indol-2-yl)methanone]"
